Patent US20230193038A1, “METHODS OF DIGITAL PRINTING USING MODIFIED INDIGO COMPOUNDS” (VP Jeanswear LP, priority 2017, published 2023)

Test: Conversion of the modified indigo compound to indigo under hydrolyzing conditions
Type: physicochemical
Procedure: The hydrolysis is performed using any chemical compound or condition that is capable of converting the dye compound to indigo. In some embodiments, the hydrolysis is performed in aqueous compositions which contain a hydrolyzing agent. In other embodiments, the hydrolyzing agent may be selected by one skilled in the art and may include, without limitation, a base, heat, steam, or a combination thereof.

- hydrolysis to indigo: hydrolyzes to indigo
SMILES: O=C1/C(=C2/C(=O)c3ccccc3N2C(=O)c2ccncc2)N(C(=O)c2ccncc2)c2ccccc21 [Compound 37]
